Test system: LdtMt2^C354S
Assay type: biochemical, Mycobacterium tuberculosis

Row | Substance | Product formation with LdtMt2^C354S
1 | GlcNAc-MurNAc-L-Ala-D-iGluNH2-m-DAPNH2-D-Ala [Compound 1] | no product formation was observed
2 | GlcNAc-Muramitol-L-Ala-D-iGluNH2-m-DAPNH2-D-Ala [Compound 2] | no product formation was observed
3 | lactoyl-L-Ala-D-iGluNH2-m-DAPNH2-D-Ala [Compound 3] | no product formation was observed

— PMC11410929, “Biochemical and crystallographic studies of L,D-transpeptidase 2 from Mycobacterium tuberculosis with its natural monomer substrate” (Communications Biology, 2024)
